PubChem BioAssay (NCI)
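Here, GI50 denotes the concentration required for 50% inhibition of growth. TGI marks complete inhibition of growth.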

Tests used:
Test in all cases: NCI anticancer screen, dose series, 384-well format; in the data active = GI50 below about 0.43 µM; inactive = the rest
[1] = test system: 786-0 renal
[2] = test system: A498 renal
[3] = test system: A549 NSCLC
[4] = test system: ACHN renal
[5] = test system: CCRF-CEM leukemia
[6] = test system: COLO 205 colon
[7] = test system: DU-145 prostate
[8] = test system: EKVX NSCLC
[9] = test system: HCC-2998 colon
[10] = test system: HCT-116 colon
[11] = test system: HCT-15 colon
[12] = test system: HL-60(TB) leukemia
[13] = test system: HOP-62 NSCLC
[14] = test system: HOP-92 NSCLC
[15] = test system: HS 578T breast
[16] = test system: HT29 colon
[17] = test system: IGROV1 ovarian
[18] = test system: K-562 leukemia
[19] = test system: KM12 colon
[20] = test system: LOX IMVI melanoma
[21] = test system: M14 melanoma
[22] = test system: MALME-3M melanoma
[23] = test system: MDA-MB-435 melanoma
[24] = test system: MOLT-4 leukemia
[25] = test system: NCI-H23 lung
[26] = test system: NCI-H322M lung
[27] = test system: NCI-H460 NSCLC
[28] = test system: NCI-H522 lung
[29] = test system: NCI/ADR-RES ovarian
[30] = test system: OVCAR-3 ovarian
[31] = test system: OVCAR-4 ovarian
[32] = test system: OVCAR-5 ovarian
[33] = test system: PC-3 prostate
[34] = test system: RPMI-8226 leukemia
[35] = test system: SF-268 CNS
[36] = test system: SF-539 CNS
[37] = test system: SK-MEL-28 melanoma
[38] = test system: SK-MEL-5 melanoma
[39] = test system: SK-OV-3 ovarian
[40] = test system: SNB-75 CNS
[41] = test system: SR leukemia
[42] = test system: SW-620 colon
[43] = test system: T-47D breast
[44] = test system: TK-10 renal
[45] = test system: U251 glioblastoma
[46] = test system: UACC-257 melanoma
[47] = test system: UO-31 renal

C#Cc1cccc(Nc2ncnc3cc(OCCOC)c(OCCOC)cc23)c1
> 32.4 µM: TGI [47]
> 96.6 µM: TGI [14]
inactive: GI50 [1] 6.46 µM | GI50 [2] 1.97 µM | GI50 [3] 3.72 µM | GI50 [5] 11.2 µM | GI50 [6] > 100 µM | GI50 [7] 1.98 µM | GI50 [8] 1.93 µM | GI50 [9] 48.4 µM | GI50 [10] 11.6 µM | GI50 [11] 4.58 µM | GI50 [12] 6.29 µM | GI50 [13] 28.5 µM | GI50 [14] 11.9 µM | GI50 [15] 3.85 µM | GI50 [16] > 90.8 µM | GI50 [18] 7.57 µM | GI50 [19] > 27.8 µM | GI50 [20] 7.97 µM | GI50 [21] 6.72 µM | GI50 [22] 16.8 µM | GI50 [23] > 100 µM | GI50 [24] 7.14 µM | GI50 [25] 25.2 µM | GI50 [27] 9.81 µM | GI50 [28] 0.433 µM | GI50 [29] 12.6 µM | GI50 [30] 4.02 µM | GI50 [31] 32 µM | GI50 [32] 6.96 µM | GI50 [33] 23 µM | GI50 [34] 7.94 µM | GI50 [35] 21.2 µM | GI50 [36] 39.3 µM | GI50 [37] > 85.1 µM | GI50 [38] 1.94 µM | GI50 [39] 1.58 µM | GI50 [40] 8 µM | GI50 [41] 21.4 µM | GI50 [42] > 100 µM | GI50 [43] 6.56 µM | GI50 [44] 0.849 µM | GI50 [45] 43.4 µM | GI50 [46] 96.9 µM | GI50 [47] 2.04 µM
> 67.5 µM: TGI [41]
active: GI50 [4] 0.329 µM | GI50 [17] 0.385 µM | GI50 [26] 0.193 µM
8.28 µM: TGI [39]
> 51.9 µM: TGI [24]
> 43.1 µM: TGI [12]
> 26.3 µM: TGI [38]
> 72.3 µM: TGI [35]
> 100 µM: TGI [1] | TGI [2] | TGI [3] | TGI [5] | TGI [6] | TGI [7] | TGI [8] | TGI [9] | TGI [10] | TGI [11] | TGI [13] | TGI [16] | TGI [18] | TGI [19] | TGI [20] | TGI [21] | TGI [22] | TGI [23] | TGI [25] | TGI [27] | TGI [29] | TGI [30] | TGI [31] | TGI [32] | TGI [33] | TGI [36] | TGI [37] | TGI [42] | TGI [44] | TGI [45] | TGI [46]
1.66 µM: TGI [26]
> 88.4 µM: TGI [34]
3.47 µM: TGI [28]
> 89 µM: TGI [43]
5.62 µM: TGI [17]
50.5 µM: TGI [40]
> 25.8 µM: TGI [4]
45.8 µM: TGI [15]

CC(=O)OC[C@H]1O[C@@H](n2ccc(=O)[nH]c2=O)[C@H](OC(C)=O)[C@@H]1OC(C)=O
> 100 µM: TGI [1] | TGI [2] | TGI [3] | TGI [4] | TGI [5] | TGI [6] | TGI [7] | TGI [8] | TGI [9] | TGI [10] | TGI [11] | TGI [12] | TGI [13] | TGI [14] | TGI [15] | TGI [16] | TGI [17] | TGI [18] | TGI [19] | TGI [20] | TGI [21] | TGI [22] | TGI [23] | TGI [24] | TGI [25] | TGI [26] | TGI [27] | TGI [28] | TGI [29] | TGI [30] | TGI [31] | TGI [32] | TGI [33] | TGI [34] | TGI [35] | TGI [36] | TGI [37] | TGI [38] | TGI [39] | TGI [40] | TGI [41] | TGI [42] | TGI [43] | TGI [44] | TGI [45] | TGI [46] | TGI [47]
inactive: GI50 [1] > 100 µM | GI50 [2] > 100 µM | GI50 [3] > 100 µM | GI50 [4] > 100 µM | GI50 [5] > 100 µM | GI50 [6] > 100 µM | GI50 [7] > 100 µM | GI50 [8] > 100 µM | GI50 [9] > 100 µM | GI50 [10] > 100 µM | GI50 [11] > 100 µM | GI50 [12] > 100 µM | GI50 [13] > 100 µM | GI50 [14] > 100 µM | GI50 [15] > 100 µM | GI50 [16] > 100 µM | GI50 [17] > 100 µM | GI50 [18] > 100 µM | GI50 [19] > 100 µM | GI50 [20] > 100 µM | GI50 [21] > 100 µM | GI50 [22] > 100 µM | GI50 [23] > 100 µM | GI50 [24] > 100 µM | GI50 [25] > 100 µM | GI50 [26] > 100 µM | GI50 [27] > 100 µM | GI50 [28] > 100 µM | GI50 [29] > 100 µM | GI50 [30] > 100 µM | GI50 [31] > 100 µM | GI50 [32] > 100 µM | GI50 [33] > 100 µM | GI50 [34] > 100 µM | GI50 [35] > 100 µM | GI50 [36] > 100 µM | GI50 [37] > 100 µM | GI50 [38] > 100 µM | GI50 [39] > 100 µM | GI50 [40] > 100 µM | GI50 [41] > 100 µM | GI50 [42] > 100 µM | GI50 [43] > 100 µM | GI50 [44] > 100 µM | GI50 [45] > 100 µM | GI50 [46] > 100 µM | GI50 [47] > 100 µM
